Results: ChEMBL document CHEMBL1201862, “PubChem BioAssay data set” (2004)
The source made the active and inactive calls.

Experiments:
Procathepsin L = Procathepsin L (Homo sapiens, UniProt P07711)
Large T antigen = Large T antigen (Simian virus 40, UniProt P03070); type: functional, Betapolyomavirus macacae;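 note: Confirmatory-stage PubChem screen for compounds that inhibit SV40 T antigen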
Aspartyl aminopeptidase = Aspartyl aminopeptidase (Plasmodium falciparum 3D7, UniProt Q8I2J3)
Estrogen receptor beta [1] = molecular target: T1, Estrogen receptor beta (Homo sapiens, UniProt Q92731);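 note: recombinant ER-beta bound to coactivator SRC1 peptide in presence of estradiol agonist; inhibitors block coactivator peptide binding and lower the FRET signal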
T1 sequence (Q92731 whole entry): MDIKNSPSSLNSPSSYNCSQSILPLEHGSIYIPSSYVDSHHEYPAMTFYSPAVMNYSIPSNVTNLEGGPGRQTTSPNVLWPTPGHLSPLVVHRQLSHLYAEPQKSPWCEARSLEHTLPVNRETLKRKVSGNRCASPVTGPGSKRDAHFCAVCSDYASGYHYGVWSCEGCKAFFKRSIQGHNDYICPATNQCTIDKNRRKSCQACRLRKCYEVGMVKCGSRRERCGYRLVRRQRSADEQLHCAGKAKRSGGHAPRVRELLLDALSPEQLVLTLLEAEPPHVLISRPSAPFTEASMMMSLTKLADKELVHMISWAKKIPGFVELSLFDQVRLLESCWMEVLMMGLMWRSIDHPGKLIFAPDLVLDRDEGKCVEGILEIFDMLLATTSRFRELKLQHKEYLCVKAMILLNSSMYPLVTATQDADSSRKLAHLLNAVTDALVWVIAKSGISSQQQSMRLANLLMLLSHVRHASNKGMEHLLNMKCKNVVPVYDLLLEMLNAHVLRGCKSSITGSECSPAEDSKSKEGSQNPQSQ

Leucine aminopeptidase = molecular target: T2, Leucine aminopeptidase (Plasmodium falciparum 3D7, UniProt Q8IL11); test: P. falciparum M17LAP inhibitors, primary screen, biochemical, fluorogenic H-Leu-NHMec substrate, 1536-well (AID 1619); type: functional
T2 sequence (Q8IL11 whole entry): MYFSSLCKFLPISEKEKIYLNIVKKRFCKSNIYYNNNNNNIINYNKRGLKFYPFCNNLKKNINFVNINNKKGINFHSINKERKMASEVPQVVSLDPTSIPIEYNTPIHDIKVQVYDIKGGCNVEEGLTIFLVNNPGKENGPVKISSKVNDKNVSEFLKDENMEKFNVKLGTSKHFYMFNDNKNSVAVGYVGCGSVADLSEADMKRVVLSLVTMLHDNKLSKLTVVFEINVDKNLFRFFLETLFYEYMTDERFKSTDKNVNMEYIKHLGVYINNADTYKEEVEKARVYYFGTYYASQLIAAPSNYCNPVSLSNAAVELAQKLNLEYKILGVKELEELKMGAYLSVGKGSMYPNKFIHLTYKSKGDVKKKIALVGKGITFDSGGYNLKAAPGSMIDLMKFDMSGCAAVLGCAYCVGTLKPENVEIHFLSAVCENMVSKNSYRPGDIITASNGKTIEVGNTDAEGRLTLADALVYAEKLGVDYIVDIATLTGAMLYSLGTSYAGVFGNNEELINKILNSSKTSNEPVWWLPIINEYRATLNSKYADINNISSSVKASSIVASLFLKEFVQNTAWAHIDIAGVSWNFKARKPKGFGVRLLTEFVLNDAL

Estrogen receptor beta [2] = molecular target: T1, Estrogen receptor beta; test: ERβ–SRC-3 coactivator interaction inhibitors, confirmation, orthogonal assay, biochemical, ELISA, streptavidin-HRP readout (AID 1060)
[3] = molecular target: T3, RNA-binding protein pos-1 (Caenorhabditis elegans, UniProt G5EF15); test: inhibitors of POS-1/mex-3 RNA binding, dose response, biochemical, fluorescence polarization (AID 1964);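 note: purified POS-1 fused to maltose binding protein made in E. coli; potency of compounds blocking POS-1 binding to fluorescent RNA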
T3 sequence (G5EF15 whole entry): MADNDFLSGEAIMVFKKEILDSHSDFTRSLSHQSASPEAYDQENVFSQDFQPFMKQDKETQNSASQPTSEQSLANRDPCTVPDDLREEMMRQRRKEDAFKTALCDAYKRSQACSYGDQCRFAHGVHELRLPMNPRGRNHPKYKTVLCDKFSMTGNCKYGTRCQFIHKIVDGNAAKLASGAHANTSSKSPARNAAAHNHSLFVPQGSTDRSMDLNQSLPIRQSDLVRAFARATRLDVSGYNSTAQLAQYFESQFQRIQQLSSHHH

[4] = molecular target: T4, Zinc finger protein mex-5 (Caenorhabditis elegans, UniProt Q9XUB2); test: MEX-5/TCR-2 RNA interaction inhibitors, dose response, biochemical, C. elegans, fluorescence polarization (AID 1960)
T4 sequence (Q9XUB2 whole entry): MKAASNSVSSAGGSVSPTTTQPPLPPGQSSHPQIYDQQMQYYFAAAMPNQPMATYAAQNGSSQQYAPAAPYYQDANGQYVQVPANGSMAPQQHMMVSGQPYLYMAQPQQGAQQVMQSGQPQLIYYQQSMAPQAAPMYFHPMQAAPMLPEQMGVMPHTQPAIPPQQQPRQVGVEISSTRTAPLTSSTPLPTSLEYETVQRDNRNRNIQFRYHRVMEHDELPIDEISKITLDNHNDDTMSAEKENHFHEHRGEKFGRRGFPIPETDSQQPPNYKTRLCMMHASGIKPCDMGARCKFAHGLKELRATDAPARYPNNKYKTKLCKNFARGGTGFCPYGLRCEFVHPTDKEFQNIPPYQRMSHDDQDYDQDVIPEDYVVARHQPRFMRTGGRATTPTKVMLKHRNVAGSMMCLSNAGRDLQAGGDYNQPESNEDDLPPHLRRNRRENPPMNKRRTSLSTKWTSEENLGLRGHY

[5] = molecular target: Serine/threonine-protein phosphatase (Homo sapiens, UniProt Q9BPW0); test: Counterscreen for inhibitors of PP1: fluorescence-based biochemical high throughput dose response assay to identify inhibitors of Protein Phosphatase 5 (PP5). [Related pubchem assays: 2034 (Summary (PP5 inhibitors)), 1987 (PP5 inhibitors in singlate), 2235 (PP1 inhibitors in singlate)]
Chain of Serine/threonine-protein phosphatase (Q9BPW0 whole entry): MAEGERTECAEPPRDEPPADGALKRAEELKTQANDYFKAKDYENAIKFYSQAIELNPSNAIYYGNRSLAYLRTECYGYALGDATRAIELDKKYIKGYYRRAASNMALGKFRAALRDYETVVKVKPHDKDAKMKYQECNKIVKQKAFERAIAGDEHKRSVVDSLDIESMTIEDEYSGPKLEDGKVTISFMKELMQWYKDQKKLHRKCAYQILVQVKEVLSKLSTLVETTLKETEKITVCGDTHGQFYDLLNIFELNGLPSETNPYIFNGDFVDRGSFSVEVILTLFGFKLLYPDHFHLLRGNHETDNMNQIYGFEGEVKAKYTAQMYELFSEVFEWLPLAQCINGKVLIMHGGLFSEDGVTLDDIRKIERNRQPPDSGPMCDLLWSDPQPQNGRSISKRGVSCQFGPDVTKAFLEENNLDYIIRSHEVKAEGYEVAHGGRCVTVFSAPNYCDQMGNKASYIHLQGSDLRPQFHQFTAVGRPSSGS

[6] = molecular target: Serine/threonine-protein phosphatase PP1-alpha catalytic subunit (Homo sapiens, UniProt P62136); test: PP1 phosphatase inhibitors, dose response, biochemical, fluorescence (AID 2403);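 note: phosphatase turnover of OMFP into fluorescent 3-O-methylfluorescein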
Chain of Serine/threonine-protein phosphatase PP1-alpha catalytic subunit (P62136 whole entry): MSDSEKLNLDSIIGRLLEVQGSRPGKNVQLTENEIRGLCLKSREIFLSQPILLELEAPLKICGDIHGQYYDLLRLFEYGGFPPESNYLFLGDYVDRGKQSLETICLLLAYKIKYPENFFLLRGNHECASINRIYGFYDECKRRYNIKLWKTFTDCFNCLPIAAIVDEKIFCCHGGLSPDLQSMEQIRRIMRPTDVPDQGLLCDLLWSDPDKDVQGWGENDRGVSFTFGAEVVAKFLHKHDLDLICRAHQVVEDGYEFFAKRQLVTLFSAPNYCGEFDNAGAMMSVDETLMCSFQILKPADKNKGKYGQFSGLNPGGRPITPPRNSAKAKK

[7] = molecular target: T5, Neuropeptide Y receptor type 1 (Homo sapiens, UniProt P25929); test: Fluorescence-based dose response cell-based high-throughput screening assay for agonists of NPY-Y1. [Related pubchem assays: 1697 (Screening assay (NPY-Y1 agonists).), 1359 (Screening assay (NPY-Y2 potentiators or agonists).), 1304 (Screening assay (NPY-Y1 potentiators or agonists).), 1704 (Screening assay (CNGC inhibitors).), 1791 (Summary AID.)]; type: functional
T5 sequence (P25929 whole entry): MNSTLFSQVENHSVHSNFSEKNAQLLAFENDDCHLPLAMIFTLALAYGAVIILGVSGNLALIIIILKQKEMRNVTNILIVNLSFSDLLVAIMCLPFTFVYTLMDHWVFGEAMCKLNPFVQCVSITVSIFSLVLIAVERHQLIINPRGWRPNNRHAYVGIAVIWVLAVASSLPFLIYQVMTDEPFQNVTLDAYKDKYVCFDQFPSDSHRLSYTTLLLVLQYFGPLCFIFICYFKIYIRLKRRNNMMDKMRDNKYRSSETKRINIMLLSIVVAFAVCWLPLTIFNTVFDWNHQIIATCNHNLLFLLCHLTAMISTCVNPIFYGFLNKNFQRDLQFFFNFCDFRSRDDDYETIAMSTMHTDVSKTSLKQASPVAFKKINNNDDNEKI

[8] = molecular target: T6, Neuropeptide Y receptor type 2 (Homo sapiens, UniProt P49146); test: Fluorescence-based counterscreen for agonists of NPY-Y1: cell-based high-throughput dose response assay for agonists of NPY-Y2.; type: functional
T6 sequence (P49146 whole entry): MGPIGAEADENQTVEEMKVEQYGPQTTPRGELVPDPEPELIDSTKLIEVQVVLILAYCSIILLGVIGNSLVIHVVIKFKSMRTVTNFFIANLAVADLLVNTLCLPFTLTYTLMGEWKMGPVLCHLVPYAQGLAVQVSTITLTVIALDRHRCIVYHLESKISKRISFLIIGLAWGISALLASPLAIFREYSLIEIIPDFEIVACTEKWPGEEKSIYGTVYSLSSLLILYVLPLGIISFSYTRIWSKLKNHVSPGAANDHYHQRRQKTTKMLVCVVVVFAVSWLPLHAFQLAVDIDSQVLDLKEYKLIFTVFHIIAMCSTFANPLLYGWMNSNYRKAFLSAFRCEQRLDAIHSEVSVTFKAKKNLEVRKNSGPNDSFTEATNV

HEK293 [9] = test: Fluorescence-based counterscreen for potentiators or agonists of NPY-Y1: cell-based high-throughput dose response assay for inhibitors of cyclic nucleotide gated ion channel (CNGC) activity. In this assay, the parental HEK293 cell line transfected with a cyclic-nucleotide gated ion channel (CNGC)-based cAMP sensor is used to measure inhibition of isoproterenol-induced CNGC …; type: functional; details: Homo sapiens
Estrogen receptor = molecular target: T7, Estrogen receptor (Homo sapiens, UniProt P03372); test: potentiators of ERα–SRC-1 coactivator binding, dose response, biochemical, TR-FRET, ERα LBD (AID 737)
T7 sequence (P03372 whole entry): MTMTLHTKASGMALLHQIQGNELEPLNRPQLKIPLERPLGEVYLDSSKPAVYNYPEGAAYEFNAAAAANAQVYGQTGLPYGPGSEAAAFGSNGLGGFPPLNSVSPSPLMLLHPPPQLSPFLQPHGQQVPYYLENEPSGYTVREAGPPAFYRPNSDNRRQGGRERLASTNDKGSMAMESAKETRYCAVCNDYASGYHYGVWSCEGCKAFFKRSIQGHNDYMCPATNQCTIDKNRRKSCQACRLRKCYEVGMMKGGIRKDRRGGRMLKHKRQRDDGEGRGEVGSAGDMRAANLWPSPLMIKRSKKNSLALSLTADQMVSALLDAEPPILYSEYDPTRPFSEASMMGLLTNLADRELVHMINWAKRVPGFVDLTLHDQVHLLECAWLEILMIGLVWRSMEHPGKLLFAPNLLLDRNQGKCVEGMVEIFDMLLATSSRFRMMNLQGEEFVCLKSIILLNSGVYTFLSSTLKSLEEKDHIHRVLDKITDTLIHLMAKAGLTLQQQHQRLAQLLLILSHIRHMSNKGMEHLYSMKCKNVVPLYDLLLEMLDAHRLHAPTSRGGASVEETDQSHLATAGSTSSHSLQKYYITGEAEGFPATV

[10] = molecular target: T5, Neuropeptide Y receptor type 1; test: Fluorescence-based counterscreen for agonists of NPY-Y2: cell-based high-throughput dose response assay for agonists of NPY-Y1.; type: functional
Cytochrome P450 2D6 = Cytochrome P450 2D6 (Homo sapiens, UniProt P10635);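 note: CYP2D6 member of a cytochrome P450 panel assay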
Chain of Cytochrome P450 2D6 (P10635 whole entry): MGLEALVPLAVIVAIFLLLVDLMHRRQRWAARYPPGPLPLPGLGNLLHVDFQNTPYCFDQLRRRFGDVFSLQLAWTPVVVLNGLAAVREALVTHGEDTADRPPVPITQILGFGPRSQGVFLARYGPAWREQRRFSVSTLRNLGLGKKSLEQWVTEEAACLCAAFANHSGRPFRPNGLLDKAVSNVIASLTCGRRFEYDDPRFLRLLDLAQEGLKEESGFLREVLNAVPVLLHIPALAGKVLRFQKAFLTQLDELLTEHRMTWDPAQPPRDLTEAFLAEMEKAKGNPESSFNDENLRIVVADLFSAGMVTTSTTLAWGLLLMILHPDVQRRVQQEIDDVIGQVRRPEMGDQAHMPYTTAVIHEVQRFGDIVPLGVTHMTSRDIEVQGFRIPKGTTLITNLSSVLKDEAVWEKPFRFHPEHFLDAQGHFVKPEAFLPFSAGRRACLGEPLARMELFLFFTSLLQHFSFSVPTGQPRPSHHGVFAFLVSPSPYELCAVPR

[11] = molecular target: T6, Neuropeptide Y receptor type 2; test: Fluorescence-based cell-based high-throughput dose response assay for agonists of NPY-Y2. [Related pubchem assays: 1703 (Screening assay (CNGC inhibitors).), 1359 (Screening assay (NPY-Y2 potentiators or agonists).), 1304 (Screening assay (NPY-Y1 potentiators or agonists).), 1710 (Screening assay (NPY-Y2 agonists).), 1791 (Summary AID.)]; type: functional
HEK293 [12] = test: Fluorescence-based counterscreen for potentiators or agonists of NPY-Y2: cell-based high-throughput dose response assay to identify inhibitors of cyclic nucleotide gated ion channel (CNGC) activity. In this assay, the parental HEK293 cell line transfected with a cyclic-nucleotide gated ion channel (CNGC)-based cAMP sensor is used to measure inhibition of isoproterenol-induced CNGC activity by test compound.; type: functional; details: Homo sapiens

Chain of Aspartyl aminopeptidase (Q8I2J3 whole entry): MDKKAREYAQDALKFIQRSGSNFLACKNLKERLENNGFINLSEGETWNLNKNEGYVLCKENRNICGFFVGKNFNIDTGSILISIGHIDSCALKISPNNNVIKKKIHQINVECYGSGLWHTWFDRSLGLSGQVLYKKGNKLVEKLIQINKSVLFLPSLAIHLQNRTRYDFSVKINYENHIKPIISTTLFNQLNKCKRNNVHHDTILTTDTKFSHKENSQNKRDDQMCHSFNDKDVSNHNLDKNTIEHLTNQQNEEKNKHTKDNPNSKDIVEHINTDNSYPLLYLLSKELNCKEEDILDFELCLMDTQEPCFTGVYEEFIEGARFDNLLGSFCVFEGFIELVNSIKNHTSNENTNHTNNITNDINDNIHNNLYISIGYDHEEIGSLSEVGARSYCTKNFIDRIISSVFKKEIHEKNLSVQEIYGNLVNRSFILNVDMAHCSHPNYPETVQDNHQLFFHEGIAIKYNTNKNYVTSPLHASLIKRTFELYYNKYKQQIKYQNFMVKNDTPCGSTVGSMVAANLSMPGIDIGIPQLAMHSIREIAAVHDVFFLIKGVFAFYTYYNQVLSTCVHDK
Chain of Procathepsin L (P07711 whole entry): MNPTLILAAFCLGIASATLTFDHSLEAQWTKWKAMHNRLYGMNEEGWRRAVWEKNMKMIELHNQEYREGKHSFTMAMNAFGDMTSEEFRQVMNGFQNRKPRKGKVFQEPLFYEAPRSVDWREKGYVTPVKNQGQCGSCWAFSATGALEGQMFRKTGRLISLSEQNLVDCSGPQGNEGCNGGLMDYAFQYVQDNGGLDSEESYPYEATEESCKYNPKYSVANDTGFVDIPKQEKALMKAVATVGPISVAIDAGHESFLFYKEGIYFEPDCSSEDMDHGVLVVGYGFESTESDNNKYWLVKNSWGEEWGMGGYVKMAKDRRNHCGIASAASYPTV
Chain of Large T antigen (P03070 whole entry): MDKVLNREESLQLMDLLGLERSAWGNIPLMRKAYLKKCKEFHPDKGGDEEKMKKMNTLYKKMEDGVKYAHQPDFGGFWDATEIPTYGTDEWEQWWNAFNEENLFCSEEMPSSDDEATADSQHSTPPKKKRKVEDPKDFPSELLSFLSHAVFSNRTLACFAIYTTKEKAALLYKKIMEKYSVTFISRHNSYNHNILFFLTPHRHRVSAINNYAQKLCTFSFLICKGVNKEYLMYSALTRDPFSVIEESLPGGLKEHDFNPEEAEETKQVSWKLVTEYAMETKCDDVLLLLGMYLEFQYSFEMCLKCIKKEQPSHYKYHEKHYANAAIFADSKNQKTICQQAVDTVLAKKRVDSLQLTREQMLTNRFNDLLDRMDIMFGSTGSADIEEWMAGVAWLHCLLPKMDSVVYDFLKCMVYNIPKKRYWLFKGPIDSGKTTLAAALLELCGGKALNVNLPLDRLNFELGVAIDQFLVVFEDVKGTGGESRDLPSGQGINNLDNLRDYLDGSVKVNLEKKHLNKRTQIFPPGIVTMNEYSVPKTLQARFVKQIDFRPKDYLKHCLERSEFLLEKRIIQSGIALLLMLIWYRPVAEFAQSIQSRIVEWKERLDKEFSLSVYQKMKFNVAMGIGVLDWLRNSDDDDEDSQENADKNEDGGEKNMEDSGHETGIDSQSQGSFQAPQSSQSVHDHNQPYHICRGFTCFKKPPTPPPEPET

Which results are given for `Cc1nc(-c2ccc(O)c(O)c2)cs1`?
IC50 (Procathepsin L): > 59.6 µM (not active); IC50 (Large T antigen): 6.46 µM (active); IC50 (Aspartyl aminopeptidase): 1.3 µM (active); IC50 (Estrogen receptor beta [1]): 10.2 µM (active); IC50 (Leucine aminopeptidase): 25.1 µM (active); IC50 (Estrogen receptor beta [2]): 87.3 µM (not active); EC50 [3]: 36.6 µM (active); EC50 [4]: 21.3 µM (active)

What does the source list for `COc1ccc(NC(=O)C2C3CCC(O3)C2C(=O)O)c(OC)c1` (stereo not drawn)?
IC50 [5]: 4.79 µM (active); IC50 [6]: 4.95 µM (active)

How did the EC50 [7] turn out when `COc1ccc(-n2nc3ccc(NS(C)(=O)=O)cc3n2)cc1Cl` was run?
Its EC50 is > 35.4 µM (not active).

What about the EC50 [8] of the same compound?
The EC50 was > 35.4 µM (not active).

What about the IC50 (HEK293 [9]) of the same compound?
Its IC50 is > 35.4 µM (not active).

With `CSc1nnc2c(n1)OC(c1ccsc1)N(C(C)=O)c1ccccc1-2` (stereo not drawn) as the compound, how does the EC50 (Estrogen receptor) read?
Its EC50 is 22.6 µM (not active).

`Cc1cccc(C)c1OCC(O)CNC(C)(C)C` (stereo not drawn) was tested. Which EC50 [10] did it give?
Its EC50 is > 35.4 µM (not active).

And the AC50 (Cytochrome P450 2D6)?
Its AC50 is 8.91 µM (inconclusive).

What about the EC50 [11] of the same compound?
Its EC50 is > 35.4 µM (not active).

What about the EC50 (HEK293 [12]) of the same compound?
The EC50 was 17.9 µM (not active).
